Experimental data: ChEMBL document CHEMBL1201862, “PubChem BioAssay data set” (2004)
Each block holds one compound with its values, some of them ahead of it. Active and inactive are the calls of the source. For most assays here, no stated cut-off is given here; in the data, actives have a measured IC50 and inactives only a lower limit.

Tests used:
Hexokinase = target: T1, Hexokinase (Trypanosoma brucei, UniProt Q38C41); test: Confirmation assay for inhibitors of Trypanosoma brucei hexokinase 1-Analogue-first series. [Related pubchem assays (depositor defined):AID1430, AID1632, AID2516, AID2560, AID2579, AID2600, AID449725, AID492951]; assay type: functional
T1 sequence (Q38C41 whole entry): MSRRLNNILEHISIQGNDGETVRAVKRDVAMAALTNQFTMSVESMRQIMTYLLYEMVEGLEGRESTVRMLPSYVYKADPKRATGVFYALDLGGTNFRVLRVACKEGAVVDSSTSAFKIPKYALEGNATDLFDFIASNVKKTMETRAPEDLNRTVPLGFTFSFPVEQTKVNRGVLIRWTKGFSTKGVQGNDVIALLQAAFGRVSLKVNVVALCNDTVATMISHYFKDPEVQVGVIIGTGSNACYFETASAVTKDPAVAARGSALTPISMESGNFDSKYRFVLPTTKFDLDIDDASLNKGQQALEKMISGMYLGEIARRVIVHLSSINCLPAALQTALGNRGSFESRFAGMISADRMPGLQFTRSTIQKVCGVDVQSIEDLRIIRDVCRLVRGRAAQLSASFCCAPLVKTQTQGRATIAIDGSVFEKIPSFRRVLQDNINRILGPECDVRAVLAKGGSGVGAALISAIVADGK

[1] = target: DNA dC->dU-editing enzyme APOBEC-3G (Homo sapiens, UniProt Q9HC16); test: Dose Response confirmation of small molecule APOBEC3G DNA Deaminase Inhibitors via a fluorescence-based single-stranded DNA deaminase assay. [Related pubchem assays (depositor defined):AID493012, AID493028]; assay type: functional
Sequence of DNA dC->dU-editing enzyme APOBEC-3G (Q9HC16 whole entry): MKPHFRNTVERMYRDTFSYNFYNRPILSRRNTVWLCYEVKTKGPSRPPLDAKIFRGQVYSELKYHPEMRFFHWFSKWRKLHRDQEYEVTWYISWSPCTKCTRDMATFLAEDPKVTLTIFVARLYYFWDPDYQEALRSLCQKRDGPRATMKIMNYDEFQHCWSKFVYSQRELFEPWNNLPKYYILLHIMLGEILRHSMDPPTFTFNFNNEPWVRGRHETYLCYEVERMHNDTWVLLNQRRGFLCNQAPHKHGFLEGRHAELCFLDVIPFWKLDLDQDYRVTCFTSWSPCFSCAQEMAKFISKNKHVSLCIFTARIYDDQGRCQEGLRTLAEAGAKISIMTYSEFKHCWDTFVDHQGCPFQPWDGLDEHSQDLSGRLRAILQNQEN

[2] = target: DNA dC->dU-editing enzyme APOBEC-3A (Homo sapiens, UniProt P31941); test: A3A deaminase inhibition for selectivity – biochemical, dose response (AID 504722); assay type: functional
Sequence of DNA dC->dU-editing enzyme APOBEC-3A (P31941 whole entry): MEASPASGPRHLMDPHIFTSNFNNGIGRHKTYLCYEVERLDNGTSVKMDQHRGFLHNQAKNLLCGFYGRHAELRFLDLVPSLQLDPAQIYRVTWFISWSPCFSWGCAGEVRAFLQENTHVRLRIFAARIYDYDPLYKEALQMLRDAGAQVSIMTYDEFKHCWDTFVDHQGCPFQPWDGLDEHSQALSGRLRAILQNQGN

[3] = target: T2, Alkaline phosphatase, tissue-nonspecific isozyme (Homo sapiens, UniProt P05186); test: potency against alkaline phosphatase TNAP – biochemical, luminescent, dose response, SAR follow-up (AID 1056)
T2 sequence (P05186 whole entry): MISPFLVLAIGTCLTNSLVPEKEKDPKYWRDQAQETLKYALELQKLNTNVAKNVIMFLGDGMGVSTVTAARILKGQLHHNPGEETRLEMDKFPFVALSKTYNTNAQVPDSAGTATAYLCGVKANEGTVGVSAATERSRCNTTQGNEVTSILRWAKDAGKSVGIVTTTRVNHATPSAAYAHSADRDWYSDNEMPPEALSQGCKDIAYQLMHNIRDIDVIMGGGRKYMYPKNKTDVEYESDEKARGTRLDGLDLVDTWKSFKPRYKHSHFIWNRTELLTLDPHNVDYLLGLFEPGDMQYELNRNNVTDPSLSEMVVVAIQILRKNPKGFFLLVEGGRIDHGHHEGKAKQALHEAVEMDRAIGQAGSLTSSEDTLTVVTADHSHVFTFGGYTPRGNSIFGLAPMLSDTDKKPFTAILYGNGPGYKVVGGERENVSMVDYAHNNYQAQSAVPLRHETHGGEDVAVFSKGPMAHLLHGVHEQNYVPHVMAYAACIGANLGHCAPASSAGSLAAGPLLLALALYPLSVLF

[4] = target: Glyceraldehyde-3-phosphate dehydrogenase (Homo sapiens, UniProt P04406)
Sequence of Glyceraldehyde-3-phosphate dehydrogenase (P04406 whole entry): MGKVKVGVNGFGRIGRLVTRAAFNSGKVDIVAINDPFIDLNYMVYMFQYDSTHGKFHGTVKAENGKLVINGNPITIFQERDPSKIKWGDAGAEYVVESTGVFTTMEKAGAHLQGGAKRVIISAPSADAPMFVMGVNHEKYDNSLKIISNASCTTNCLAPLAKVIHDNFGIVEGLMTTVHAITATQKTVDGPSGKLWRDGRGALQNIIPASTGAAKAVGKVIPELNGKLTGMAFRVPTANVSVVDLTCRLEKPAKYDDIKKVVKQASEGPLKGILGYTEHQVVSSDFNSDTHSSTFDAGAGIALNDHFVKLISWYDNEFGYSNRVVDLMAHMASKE

[5] = target: T3, Voltage-gated N-type calcium channel alpha-1B subunit/Amyloid beta A4 precursor protein-binding family A member 1 (Homo sapiens, UniProt Q00975+Q02410); assay type: protein assay
T3 sequence (Q00975 whole entry): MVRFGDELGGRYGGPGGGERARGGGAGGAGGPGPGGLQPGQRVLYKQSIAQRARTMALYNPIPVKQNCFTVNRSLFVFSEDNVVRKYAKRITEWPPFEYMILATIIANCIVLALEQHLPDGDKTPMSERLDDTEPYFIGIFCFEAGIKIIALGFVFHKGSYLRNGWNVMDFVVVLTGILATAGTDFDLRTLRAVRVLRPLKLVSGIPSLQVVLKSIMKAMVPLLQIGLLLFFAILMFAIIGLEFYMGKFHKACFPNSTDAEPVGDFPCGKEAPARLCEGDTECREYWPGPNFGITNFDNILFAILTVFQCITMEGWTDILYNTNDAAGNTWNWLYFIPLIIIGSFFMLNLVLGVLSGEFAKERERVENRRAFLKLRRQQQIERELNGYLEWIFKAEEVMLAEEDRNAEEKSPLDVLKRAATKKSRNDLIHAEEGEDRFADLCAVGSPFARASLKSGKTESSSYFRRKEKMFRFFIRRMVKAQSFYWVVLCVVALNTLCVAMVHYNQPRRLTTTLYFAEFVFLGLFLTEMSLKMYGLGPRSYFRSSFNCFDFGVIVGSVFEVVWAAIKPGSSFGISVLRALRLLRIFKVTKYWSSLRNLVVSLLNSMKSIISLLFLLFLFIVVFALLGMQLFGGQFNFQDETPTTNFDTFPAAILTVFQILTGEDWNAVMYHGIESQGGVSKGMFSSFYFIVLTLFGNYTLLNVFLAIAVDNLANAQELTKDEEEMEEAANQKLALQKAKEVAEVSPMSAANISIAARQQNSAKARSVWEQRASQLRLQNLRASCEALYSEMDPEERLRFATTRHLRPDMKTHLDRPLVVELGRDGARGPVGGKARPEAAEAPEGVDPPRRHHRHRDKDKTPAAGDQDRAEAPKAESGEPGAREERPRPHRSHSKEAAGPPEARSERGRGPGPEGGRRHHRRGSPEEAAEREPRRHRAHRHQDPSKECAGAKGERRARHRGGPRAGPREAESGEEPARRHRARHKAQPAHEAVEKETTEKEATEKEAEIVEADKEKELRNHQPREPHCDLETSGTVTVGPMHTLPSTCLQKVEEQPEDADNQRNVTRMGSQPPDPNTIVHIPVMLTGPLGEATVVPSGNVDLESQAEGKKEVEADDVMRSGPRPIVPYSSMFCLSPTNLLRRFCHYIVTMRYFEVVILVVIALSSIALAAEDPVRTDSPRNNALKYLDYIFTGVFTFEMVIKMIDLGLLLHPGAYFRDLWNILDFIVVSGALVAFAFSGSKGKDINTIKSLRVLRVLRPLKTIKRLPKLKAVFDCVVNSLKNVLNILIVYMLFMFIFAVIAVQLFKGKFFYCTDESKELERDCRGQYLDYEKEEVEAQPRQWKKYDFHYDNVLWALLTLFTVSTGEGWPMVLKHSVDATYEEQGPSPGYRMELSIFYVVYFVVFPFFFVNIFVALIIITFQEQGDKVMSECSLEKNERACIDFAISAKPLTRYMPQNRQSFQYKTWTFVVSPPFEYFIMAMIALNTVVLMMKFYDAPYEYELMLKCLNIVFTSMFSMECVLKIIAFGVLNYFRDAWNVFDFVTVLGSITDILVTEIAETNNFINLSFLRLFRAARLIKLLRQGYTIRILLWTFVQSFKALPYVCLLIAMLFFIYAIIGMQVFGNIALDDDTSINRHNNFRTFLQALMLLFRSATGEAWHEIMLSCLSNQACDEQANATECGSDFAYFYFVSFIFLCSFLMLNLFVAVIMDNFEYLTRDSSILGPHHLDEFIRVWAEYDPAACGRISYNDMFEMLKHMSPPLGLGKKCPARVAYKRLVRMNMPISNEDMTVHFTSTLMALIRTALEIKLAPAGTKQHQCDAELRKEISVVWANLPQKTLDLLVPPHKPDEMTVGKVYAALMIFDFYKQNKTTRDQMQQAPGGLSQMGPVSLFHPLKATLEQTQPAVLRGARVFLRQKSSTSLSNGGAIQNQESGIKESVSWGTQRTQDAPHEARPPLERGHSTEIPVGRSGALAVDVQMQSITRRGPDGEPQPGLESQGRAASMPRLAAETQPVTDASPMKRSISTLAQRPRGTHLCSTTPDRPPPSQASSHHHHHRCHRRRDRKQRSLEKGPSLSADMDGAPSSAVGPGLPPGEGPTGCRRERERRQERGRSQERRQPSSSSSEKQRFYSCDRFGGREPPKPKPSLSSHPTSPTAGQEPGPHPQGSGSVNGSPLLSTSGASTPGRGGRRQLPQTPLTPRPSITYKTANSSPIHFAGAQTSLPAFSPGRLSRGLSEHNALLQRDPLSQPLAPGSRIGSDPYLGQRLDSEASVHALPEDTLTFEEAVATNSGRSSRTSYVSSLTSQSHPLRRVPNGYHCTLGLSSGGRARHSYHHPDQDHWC
T3 sequence (Q02410 whole entry): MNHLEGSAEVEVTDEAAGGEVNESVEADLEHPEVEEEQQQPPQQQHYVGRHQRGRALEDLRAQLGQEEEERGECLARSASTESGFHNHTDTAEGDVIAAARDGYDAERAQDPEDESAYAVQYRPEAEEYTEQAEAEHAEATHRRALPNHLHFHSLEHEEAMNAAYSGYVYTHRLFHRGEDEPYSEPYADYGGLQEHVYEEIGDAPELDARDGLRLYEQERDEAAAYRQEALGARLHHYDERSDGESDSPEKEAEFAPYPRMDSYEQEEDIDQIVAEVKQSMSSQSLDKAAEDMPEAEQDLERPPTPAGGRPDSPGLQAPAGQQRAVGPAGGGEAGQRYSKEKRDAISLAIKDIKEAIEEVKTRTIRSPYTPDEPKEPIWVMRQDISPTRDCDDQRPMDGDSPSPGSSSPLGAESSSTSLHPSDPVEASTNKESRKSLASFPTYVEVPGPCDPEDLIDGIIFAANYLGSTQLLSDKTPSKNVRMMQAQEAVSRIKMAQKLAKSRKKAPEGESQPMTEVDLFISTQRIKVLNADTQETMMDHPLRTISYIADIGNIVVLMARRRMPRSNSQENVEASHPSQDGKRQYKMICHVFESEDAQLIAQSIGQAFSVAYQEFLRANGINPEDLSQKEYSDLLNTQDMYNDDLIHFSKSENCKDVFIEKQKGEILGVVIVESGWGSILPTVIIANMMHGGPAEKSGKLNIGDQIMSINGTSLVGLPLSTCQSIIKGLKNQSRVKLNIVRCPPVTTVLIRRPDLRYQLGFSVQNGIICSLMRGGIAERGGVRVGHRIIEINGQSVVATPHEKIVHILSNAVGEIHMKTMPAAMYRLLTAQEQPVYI

[6] = target: T3, Voltage-gated N-type calcium channel alpha-1B subunit/Amyloid beta A4 precursor protein-binding family A member 1; assay type: protein assay; remark: listed apart in the source
SUMO-activating enzyme [7] = target: T4, SUMO-activating enzyme (Homo sapiens, UniProt Q9UBT2); test: blockers of UBC9-mediated SUMO conjugation – biochemical, AlphaScreen, SUMOylation inhibitor project, confirmation (AID 2018); assay type: functional
[8] = target: T5, E3 ubiquitin-protein ligase XIAP (Homo sapiens, UniProt P98170); test: small molecules displacing peptide from XIAP – biochemical, IAP family, fluorescence polarization (AID 1018); assay type: functional
T5 sequence (P98170 whole entry): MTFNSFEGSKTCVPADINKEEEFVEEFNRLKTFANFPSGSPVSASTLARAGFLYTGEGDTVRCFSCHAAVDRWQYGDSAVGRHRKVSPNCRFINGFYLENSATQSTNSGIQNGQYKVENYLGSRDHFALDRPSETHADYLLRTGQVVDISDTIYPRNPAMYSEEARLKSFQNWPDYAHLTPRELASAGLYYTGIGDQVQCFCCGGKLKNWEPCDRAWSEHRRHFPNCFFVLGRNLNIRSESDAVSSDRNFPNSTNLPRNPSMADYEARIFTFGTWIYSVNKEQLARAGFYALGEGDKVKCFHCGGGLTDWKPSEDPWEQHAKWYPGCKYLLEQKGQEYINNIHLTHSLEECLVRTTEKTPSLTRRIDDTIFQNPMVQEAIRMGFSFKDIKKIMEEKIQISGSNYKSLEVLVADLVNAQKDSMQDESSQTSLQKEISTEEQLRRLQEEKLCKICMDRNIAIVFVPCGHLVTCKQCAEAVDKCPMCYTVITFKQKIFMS

[9] = target: T5, E3 ubiquitin-protein ligase XIAP; test: Counter Screen using XIAP-Bir3 for Chemical Antagonists of Bir1/2 domains of IAP-family anti-apoptotic proteins. [Related pubchem assays (depositor defined):AID1018, AID1449, AID1514, AID1638, AID1749, AID1750, AID488957, AID488963]
[10] = target: T6, Heat shock factor protein 1 (Mus musculus, UniProt P38532); test: enhancement of HSF1-driven luciferase signal – cell-based, NIH3T3, luminescence, dose retest, confirmation (AID 435004); assay type: functional;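 further: stress induced by proteasome inhibitor MG132 added 30 min after compound; luciferase reporter driven by HSF1 response element in NIH3T3 cells; actives raise luminescence as potentiators of the MG132 stress response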
T6 sequence (P38532 whole entry): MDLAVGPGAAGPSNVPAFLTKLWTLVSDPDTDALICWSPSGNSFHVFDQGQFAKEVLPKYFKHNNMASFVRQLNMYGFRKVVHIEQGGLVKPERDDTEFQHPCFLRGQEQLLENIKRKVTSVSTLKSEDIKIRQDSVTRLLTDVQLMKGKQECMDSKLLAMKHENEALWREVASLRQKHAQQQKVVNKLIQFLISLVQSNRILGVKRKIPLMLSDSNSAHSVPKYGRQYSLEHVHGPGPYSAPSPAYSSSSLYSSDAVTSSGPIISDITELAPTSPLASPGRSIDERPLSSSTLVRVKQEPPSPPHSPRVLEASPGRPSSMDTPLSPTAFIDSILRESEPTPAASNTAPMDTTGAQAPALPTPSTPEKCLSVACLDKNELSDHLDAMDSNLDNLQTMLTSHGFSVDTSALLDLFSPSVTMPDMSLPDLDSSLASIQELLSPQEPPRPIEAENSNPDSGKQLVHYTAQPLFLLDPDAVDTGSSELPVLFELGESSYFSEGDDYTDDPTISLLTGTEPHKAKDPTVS

[11] = target: T7, Microphthalmia-associated transcription factor (Homo sapiens, UniProt O75030); test: reducers of TRPM1 reporter luminescence, concentration series – cell-based, SK-MEL-5, cherry-picked, set 3, MITF inhibitor project, dose response (AID 493073); assay type: functional;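 further: SK-MEL-5 melanoma cells with luciferase driven by the MITF target TRPM1 promoter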
T7 sequence (O75030 whole entry): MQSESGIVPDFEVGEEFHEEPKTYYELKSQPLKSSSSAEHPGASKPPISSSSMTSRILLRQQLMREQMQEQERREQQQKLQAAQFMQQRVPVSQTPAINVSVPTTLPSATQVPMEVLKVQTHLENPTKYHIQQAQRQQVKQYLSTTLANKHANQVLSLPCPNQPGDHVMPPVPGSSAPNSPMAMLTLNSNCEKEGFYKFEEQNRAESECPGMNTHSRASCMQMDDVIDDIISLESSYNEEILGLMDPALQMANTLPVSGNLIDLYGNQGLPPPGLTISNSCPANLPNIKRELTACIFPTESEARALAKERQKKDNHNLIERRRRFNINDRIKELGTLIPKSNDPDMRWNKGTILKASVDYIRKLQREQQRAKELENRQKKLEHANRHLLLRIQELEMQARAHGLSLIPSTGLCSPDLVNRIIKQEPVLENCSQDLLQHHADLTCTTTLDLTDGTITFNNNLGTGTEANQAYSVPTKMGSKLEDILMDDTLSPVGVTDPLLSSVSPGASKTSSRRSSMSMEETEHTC

[12] = Luminescence Cell-Based Dose Retest to Confirm Inhibitors of Cancer Stem Cells. [Related pubchem assays (depositor defined):AID2717, AID2721]; assay type: functional; settings: Homo sapiens
SUMO-activating enzyme [13] = target: T4, SUMO-activating enzyme; test: blockers of SAE1/SAE2–UBC9 SUMO transfer – biochemical, HTRF, uHTS, primary screen (AID 2006); assay type: protein-complex assay
[14] = target: T8, Rac GTPase-activating protein 1 (Homo sapiens, UniProt Q9H0H5); test: blockers of MgcRacGAP-driven Rac1 GTP hydrolysis – biochemical, ADP Hunter fluorescence, primary and confirmatory, confirmation (AID 624330); assay type: functional
T8 sequence (Q9H0H5 whole entry): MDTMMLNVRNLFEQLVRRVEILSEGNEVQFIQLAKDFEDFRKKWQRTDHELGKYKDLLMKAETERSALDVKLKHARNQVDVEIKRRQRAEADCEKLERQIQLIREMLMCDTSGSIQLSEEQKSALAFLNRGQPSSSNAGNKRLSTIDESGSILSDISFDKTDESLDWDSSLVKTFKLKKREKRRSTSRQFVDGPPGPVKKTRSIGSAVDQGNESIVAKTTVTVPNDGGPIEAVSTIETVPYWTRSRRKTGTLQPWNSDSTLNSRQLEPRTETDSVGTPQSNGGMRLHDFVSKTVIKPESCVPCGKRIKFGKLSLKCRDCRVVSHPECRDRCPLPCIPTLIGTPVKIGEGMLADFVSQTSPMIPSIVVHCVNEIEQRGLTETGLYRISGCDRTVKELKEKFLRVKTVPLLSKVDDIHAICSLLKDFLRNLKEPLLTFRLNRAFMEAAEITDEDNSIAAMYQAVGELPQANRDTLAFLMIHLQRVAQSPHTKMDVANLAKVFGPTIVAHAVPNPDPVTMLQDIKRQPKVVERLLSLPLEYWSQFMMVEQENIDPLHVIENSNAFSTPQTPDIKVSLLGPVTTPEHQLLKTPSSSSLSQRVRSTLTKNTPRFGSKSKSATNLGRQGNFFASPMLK

SMILES: COc1ccc(CC(=O)Nc2cc(Cl)ccc2C(=O)O)cc1
IC50 (Hexokinase): > 25 µM (inactive)

SMILES: CC(C)c1cccc(C(=O)Nc2cc(Cl)ccc2C(=O)O)c1
IC50 (Hexokinase): > 25 µM (inactive)

SMILES: N#Cc1cc2c([nH]c1=S)CCCC2
IC50 [1]: 5.16 µM (active) | IC50 [2]: > 100 µM (inactive)

SMILES: Cc1ccc(N(CC(O)COCc2ccco2)S(=O)(=O)c2ccc(C)cc2)cc1 (stereo unspecified)
IC50 [5]: > 50 µM (inactive) | IC50 [6]: 28 µM (active)

SMILES: CN1CCN(C(=O)Cc2nc3ccccc3[nH]2)CC1
IC50 [8]: > 100 µM (not active) | IC50 [9]: > 100 µM (inactive)

SMILES: CCc1ccc(-n2c(=O)c3ccccc3n3c(S)nnc23)cc1.CN(C)C=O
IC50 [1]: 4.9 µM (active) | IC50 [2]: > 100 µM (inactive)

SMILES: O=C1C(C2=NC(c3ccccn3)C3C(=O)N(c4ccc(Cl)cc4Cl)C(=O)C23)=C(O)c2ccccc21 (stereo unspecified)
IC50 (SUMO-activating enzyme [7]): 34.6 µM (active) | AC50 [12]: 13.6 µM (active) | IC50 (SUMO-activating enzyme [13]): 15 µM (active)

SMILES: O=C(Nc1nnc(S)s1)c1ccco1
IC50 [14]: 102 µM (active) | IC50 [1]: 5.51 µM (active) | IC50 [2]: > 100 µM (inactive)

Second part, the compound after the results:

IC50 [3]: 0.6 µM (active) | IC50 [4]: > 100 µM (not active)
SMILES: COC(=O)c1cc(-c2ccc3ccccc3c2)[nH]n1

IC50 [3]: > 100 µM (inactive) | IC50 [4]: > 100 µM (not active)
SMILES: COc1ccc(OC)c(S(=O)(=O)n2cc(C(N)=O)c3ccccc32)c1

IC50 (SUMO-activating enzyme [7]): 14.3 µM (active)
SMILES: N#Cc1c(=O)c2nc(NCc3ccccc3)ncc2n2ccccc12

IC50 [8]: > 100 µM (not active) | IC50 [9]: > 100 µM (inactive)
SMILES: C/C(Cn1nnc([N+](=O)[O-])n1)=N\NC(=O)c1ccc(C)cc1

EC50 [10]: 11 µM (active) | AC50 [11]: 7.35 µM (active) | IC50 [5]: 29.4 µM (active) | IC50 [6]: 9.89 µM (active)
SMILES: CCOc1cc(/C=C\[N+](=O)[O-])ccc1OCC(=O)N1CCOCC1

IC50 [8]: > 100 µM (not active) | IC50 [9]: > 100 µM (inactive)
SMILES: c1c(CN2CCCCC2)n[nH]c1C1CCCCC1

IC50 [3]: > 100 µM (inactive) | IC50 [4]: > 100 µM (not active)
SMILES: Cc1ccccc1S(=O)(=O)Nc1nc2ccccc2nc1Cl
